The test system of the assay is eIF2α. The experiment in a line: Phosphorylated eIF2α levels in HeLa cells, Western blot. The class given is cell-based. As to the method:
Phosphorylated eIF2α levels were monitored by Western-blot analyses using HeLa cell extracts (40 μg) treated with 15d-PGJ2 (lanes 2-4), PGA1 (5), PGE2 (6), Rosi (7), or SA (8) at the indicated concentrations for 30 minutes or with heat at 44° C. for 30 minutes, and the obtained results are shown in FIG. 2A.
As SG formation is accompanied by translational blockade, the effects of 15d-PGJ2 on protein synthesis were investigated. In FIG. 4A, HeLa cells grown on 60-mm dishes up to about 70-80% confluence were mock-treated (1) or treated with PGA1 (2, 3, and 4), 15d-PGJ2 (5 and 6 and 7), or PGE2 (8, 9, and 10) at the indicated concentrations in FIG. 4A for 30 minutes. Then in vivo labeling of newly synthesized proteins was performed as described above. 4200 CPM was obtained from the TCA-precipitated control sample (lane 1), and phosphorylated eIF2α levels were monitored by Western-blot analyses (bottom panel). In FIG. 4B, cells were mock-treated (1), treated with SA (400 μM) (2 and 3), with PGA1 (90 μM) (4-6), with 15d-PGJ2 (90 μM) (7-9), and with PGE2 (90 μM) (10-12) as indicated times. Newly synthesized proteins were measured as panel (A). 4500 CPM was obtained from the TCA-precipitated control sample (lane 1). Phosphorylated eIF2α levels were monitored by Western-blot analyses (bottom panel) and the obtained results are shown in FIG. 4B.
In general terms: A western blot detects proteins with antibodies after separation by electrophoresis.

Each structure is given as a SMILES string.

As for `CCCCC/C=C/C=C1/C(=O)C=C[C@@H]1C/C=C\CCCC(=O)O` [15d-PGJ2, 15-deoxy-delta 12,14-prostaglandin J2], the “Phosphorylation of eIF2α” value (HeLa cells of the labeling experiment, FIGS. 4A and B bottom panels) is “No significant phosphorylation of eIF2α”. For the same compound, under “HeLa cells, 30 minutes, FIG. 2A”, the eIF2α phosphorylation entry was “no significant increase in eIF2α phosphorylation”.

For the origin of these results see patent US20090023810A1, “METHODS OF TRANSLATION AND/OR INFLAMMATION BLOCKADE” (priority 2007, published 2009).
